A word on the EC50: it is the concentration at which the effect is half-maximal.

The target of assay [1] is T1, GPR40 (Homo sapiens, UniProt O14842). In words: Inositol phosphate accumulation assay (A9_GPR40 cells). In kind it is cell-based. Details: expressed in transfected cells; host or cells: CHO cells stably transfected with GPR40 and aequorin. The settings on record: inositol phosphate assay, A9_GPR40 cells, 1 hour; read-out: IP3 EC50. The method in brief:
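[^3H] inositol phosphate accumulation was measured by SPA after 1 h compound exposure at 37° C in HBSS/10 mM LiCl containing HSA, ending with a 20 mM formic acid quench. The GPR40-transfected A9 cells had first been labelled overnight (16 h) with 1 μCi/mL ^3H-inositol.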

Assay [2] addresses T1, GPR40. In words: Cell-based aequorin assay (CHO cells stably expressing GPR40 and aequorin). More on the design: expressed in transfected cells; host or cells: CHO cells stably transfected with GPR40 and aequorin. The settings on record: activation of human GPR40, CHO cells, 0.01% HSA. The method in brief: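 CHO cells stably co-expressing GPR40 and aequorin, loaded with coelenterazine (1 ug/mL, 2 h, room temperature) in H/HBSS with 20 mM Hepes and 0.01% fatty acid-free HSA. Serially diluted compounds added; luminescence recorded over 20 s. EC50 from dose-response of maximum relative light units.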

T1 sequence (O14842 whole entry): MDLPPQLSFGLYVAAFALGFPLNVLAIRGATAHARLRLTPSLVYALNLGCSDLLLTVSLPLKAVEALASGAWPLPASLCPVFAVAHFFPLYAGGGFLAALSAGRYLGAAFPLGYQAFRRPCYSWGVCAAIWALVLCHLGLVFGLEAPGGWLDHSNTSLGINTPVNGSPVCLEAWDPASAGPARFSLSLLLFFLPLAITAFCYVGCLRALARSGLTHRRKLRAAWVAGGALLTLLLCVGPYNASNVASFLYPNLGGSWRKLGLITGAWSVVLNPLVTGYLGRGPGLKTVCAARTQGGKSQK

Take `COc1ccc(F)c(-c2ccc(COc3cc(F)cc(C(CC(=O)O)CC4CC4)c3)cc2C2CCCC2(C)C)c1` (single isomer, unassigned) [Example 89.1]: the values for the EC50 at GPR40 [1] and at GPR40 [2] were less than 10 nM and 10 to 100 nM, respectively.
For `CCCC(CC(=O)O)c1cccc(OCc2ccc(-c3cc(OC)ccc3F)c(C3CCCCC3)c2)c1` (single isomer, unassigned) [Example 67.8, (3R)-3-(3-(((2-Cyclohexyl-2′-fluoro-5′-(methyloxy)-1,1′-biphenyl-4-yl)methyl)oxy)phenyl)hexanoic acid or (3S)-3-(3-(((2-cyclohexyl-2′-fluoro-5′-(methyloxy)-1,1′-biphenyl-4-yl)methyl)oxy)phenyl)hexanoic acid] the same measures were 10 to 100 nM and 100 to 1000 nM.
The like results for `COc1ccc(F)c(-c2ccc(COc3cccc(C(CC(=O)O)CC4CC4)c3)cc2C(C)(C)C)c1` (single isomer, unassigned) [Example 69.4, (3R)-4-Cyclopropyl-3-(3-(((2-(1,1-dimethylethyl)-2′-fluoro-5′-(methyloxy)-1,1′-biphenyl-4-yl)methyl)oxy)phenyl)butanoic acid or (3S)-4-cyclopropyl-3-(3-(((2-(1,1-dimethylethyl)-2′-fluoro-5′-(methyloxy)-1,1′-biphenyl-4-yl)methyl)oxy)phenyl)butanoic acid] were, in that order, 10 to 100 nM and 100 to 1000 nM.
The like results for `COc1ccc(F)c(-c2ccc(COc3cccc([C@@H](CC(=O)O)CC4CC4)c3)cc2C2CC(C)(C)CC(C)(C)C2)c1` (single isomer, unassigned) [Example 69.32, (3R)-4-Cyclopropyl-3-(3-(((2′-fluoro-5′-(methyloxy)-2-(3,3,5,5-tetramethylcyclohexyl)-1,1′-biphenyl-4-yl)methyl)oxy)phenyl)butanoic acid or (3S)-4-cyclopropyl-3-(3-(((2′-fluoro-5′-(methyloxy)-2-(3,3,5,5-tetramethylcyclohexyl)-1,1′-biphenyl-4-yl)methyl)oxy)phenyl)butanoic acid] were, in that order, 10 to 100 nM and 100 to 1000 nM.
`COc1cc(-c2cc(F)c(COc3cccc([C@@H](CC(=O)O)C4CC4)c3F)cc2[C@H]2CCCC2(C)C)c(F)cn1` (single isomer, unassigned) [Example 83.34]: the EC50 at GPR40 [1] is less than 10 nM; on GPR40 [2], 10 to 100 nM.
Consider `COc1ccc(F)c(-c2ccc(COc3cccc([C@@H](CC(=O)O)CC4CC4)c3)cc2C2=CC(C)(C)CC(C)(C)C2)c1` (single isomer, unassigned) [Example 69.31, (3R)-4-Cyclopropyl-3-(3-(((2′-fluoro-5′-(methyloxy)-2-(3,3,5,5-tetramethyl-1-cyclohexen-1-yl)-1,1′-biphenyl-4-yl)methyl)oxy)phenyl)butanoic acid or (3S)-4-cyclopropyl-3-(3-(((2′-fluoro-5′-(methyloxy)-2-(3,3,5,5-tetramethyl-1-cyclohexen-1-yl)-1,1′-biphenyl-4-yl)methyl)oxy)phenyl)butanoic acid], for which the EC50 at GPR40 [1] fell in the range of 10 to 100 nM; on GPR40 [2], 100 to 1000 nM.
Turning to `CCC[C@H](CC(=O)O)c1cccc(OCc2ccc(-c3cc(OC)ccc3F)c(C3CCCC3(C)C)c2)c1` (single isomer, unassigned) [Example 67.11, (3R)-3-(3-(((2-(2,2-Dimethylcyclopentyl)-2′-fluoro-5′-(methyloxy)-1,1′-biphenyl-4-yl)methyl)oxy)phenyl)hexanoic acid or (3S)-3-(3-(((2-(2,2-dimethylcyclopentyl)-2′-fluoro-5′-(methyloxy)-1,1′-biphenyl-4-yl)methyl)oxy)phenyl)hexanoic acid], the EC50 on GPR40 [1] was in the range of 10 to 100 nM; at GPR40 [2], 100 to 1000 nM.
For `COCCO[C@H](c1cc(COc2cccc([C@@H](CC(=O)O)C3CC3)c2F)ccc1-c1ccccc1F)C(C)(C)C` (single isomer, unassigned) [Example 83.11] the same measures were 10 to 100 nM and 100 to 1000 nM.
For `COc1ccc(F)c(-c2ccc(COc3cccc(C(C)(C)CC(=O)O)c3)cc2C2CCCC2(C)C)c1` (single isomer, unassigned) [Example 85.3, 3-(3-(((2-((1R)-2,2-Dimethylcyclopentyl)-2′-fluoro-5′-(methyloxy)-1,1′-biphenyl-4-yl)methyl)oxy)phenyl)-3-methylbutanoic acid or 3-(3-(((2-((1S)-2,2-dimethylcyclopentyl)-2′-fluoro-5′-(methyloxy)-1,1′-biphenyl-4-yl)methyl)oxy)phenyl)-3-methylbutanoic acid] the same measures were 10 to 100 nM and 100 to 1000 nM.
For `CCC(C)(CC(=O)O)c1cccc(OCc2ccc(-c3cc(OC)ccc3F)c([C@@H]3CCCC3(C)C)c2)c1` (single isomer, unassigned) [Example 103, 3-(3-(((2-((1S)-2,2-Dimethylcyclopentyl)-2′-fluoro-5′-(methyloxy)-1,1′-biphenyl-4-yl)methyl)oxy)phenyl)-3-methylpentanoic acid or 3-(3-(((2-((1R)-2,2-dimethylcyclopentyl)-2′-fluoro-5′-(methyloxy)-1,1′-biphenyl-4-yl)methyl)oxy)phenyl)-3-methylpentanoic acid] the same measures were 10 to 100 nM and 100 to 1000 nM.
In the case of `COc1cccc(-c2ccc(COc3cccc(C(CC(=O)O)CC4CC4)c3)cc2C2CCCC2(C)C)c1` (single isomer, unassigned) [Example 69.10], the EC50 is less than 10 nM at GPR40 [1] and 10 to 100 nM on GPR40 [2].
The like results for `CCCC(CC(=O)O)c1cccc(OCc2ccc(-c3cccc(OC)c3)c(C3=CCCC3(C)C)c2)c1` (single isomer, unassigned) [Example 67.12, (3R)-3-(3-(((2-(5,5-Dimethyl-1-cyclopenten-1-yl)-3′-(methyloxy)-1,1′-biphenyl-4-yl)methyl)oxy)phenyl)hexanoic acid or (3S)-3-(3-(((2-(5,5-dimethyl-1-cyclopenten-1-yl)-3′-(methyloxy)-1,1′-biphenyl-4-yl)methyl)oxy)phenyl)hexanoic acid] were, in that order, 10 to 100 nM and 100 to 1000 nM.
Consider `CCC(CC(=O)O)c1cccc(OCc2ccc(-c3cc(OC)ncc3F)c(C3CCCC3(C)C)c2)c1F` (single isomer, unassigned) [Example 77.9], for which the EC50 on GPR40 [1] was less than 10 nM; at GPR40 [2], 100 to 1000 nM.
For `COc1cc(-c2ccc(COc3cccc([C@@H](CC(=O)O)C4CC4)c3)cc2[C@@H]2CCCC2(C)C)c(F)cn1` (single isomer, unassigned) [Example 66.37] the same measures were 10 to 100 nM and 100 to 1000 nM.
As to `CCC(CC(=O)O)c1cc(F)cc(OCc2ccc(-c3cc(OC)ncc3F)c(C3CCCC3(C)C)c2)c1F` (single isomer, unassigned) [Example 90.3], the EC50 at GPR40 [1] is less than 10 nM; at GPR40 [2], 100 to 1000 nM.
For `CCC(CC(=O)O)c1cc(F)cc(OCc2cc(C3CCCC3(C)C)c(-c3cc(OC)ccc3F)cc2F)c1` (single isomer, unassigned) [Example 88.3] the same measures were less than 10 nM and 100 to 1000 nM.
The like results for `COc1cccc(-c2ccc(COc3cccc(C(CC(=O)O)CC4CC4)c3)cc2C2CCCCCC2)c1` (single isomer, unassigned) [Example 69.11, (3R)-3-(3-(((2-Cycloheptyl-3′-(methyloxy)-1,1′-biphenyl-4-yl)methyl)oxy)phenyl)-4-cyclopropylbutanoic acid or (3S)-3-(3-(((2-cycloheptyl-3′-(methyloxy)-1,1′-biphenyl-4-yl)methyl)oxy)phenyl)-4-cyclopropylbutanoic acid] were, in that order, 10 to 100 nM and 100 to 1000 nM.
Turning to `CC[C@H](CC(=O)O)c1cccc(OCc2ccc(-c3cccc(OC)c3)c(C3CCCCCC3)c2)c1` (single isomer, unassigned) [Example 78.8, (3R)-3-(3-(((2-Cycloheptyl-3′-(methyloxy)-1,1′-biphenyl-4-yl)methyl)oxy)phenyl)pentanoic acid or (3S)-3-(3-(((2-cycloheptyl-3′-(methyloxy)-1,1′-biphenyl-4-yl)methyl)oxy)phenyl)pentanoic acid], the EC50 at GPR40 [1] lay within 10 to 100 nM; at GPR40 [2], 100 to 1000 nM.
The like results for `CCC(CC(=O)O)c1cc(OCc2ccc(-c3cc(OC)ccc3F)c(C3=CCCC3(C)C)c2)ccc1F` (single isomer, unassigned) [Example 76.1, (3R)-3-(5-(((2-(5,5-Dimethyl-1-cyclopenten-1-yl)-2′-fluoro-5′-(methyloxy)-1,1′-biphenyl-4-yl)methyl)oxy)-2-fluorophenyl)pentanoic acid or (3S)-3-(5-(((2-(5,5-dimethyl-1-cyclopenten-1-yl)-2′-fluoro-5′-(methyloxy)-1,1′-biphenyl-4-yl)methyl)oxy)-2-fluorophenyl)pentanoic acid] were, in that order, 10 to 100 nM and 100 to 1000 nM.
On to `COc1cc(-c2ccc(COc3cccc(C(CC(=O)O)CC4CC4)c3F)cc2C(OC)C(C)(C)C)c(F)cn1` (single isomer, unassigned) [Example 84.9], for which the EC50 was less than 10 nM at GPR40 [1] and 100 to 1000 nM at GPR40 [2].
For `CCC[C@H](CC(=O)O)c1cccc(OCc2ccc(-c3cccc(OC)c3)c(C(C)(C)C)c2)c1` (single isomer, unassigned) [Example 33, (3R)-3-(3-(((2-(1,1-Dimethylethyl)-3′-(methyloxy)-1,1′-biphenyl-4-yl)methyl)oxy)phenyl)hexanoic acid or (3S)-3-(3-(((2-(1,1-dimethylethyl)-3′-(methyloxy)-1,1′-biphenyl-4-yl)methyl)oxy)phenyl)hexanoic acid] the same measures were 100 to 1000 nM and 100 to 1000 nM.
